Results published in article PMC8110578, “Phenylethynylbenzyl-modified biguanides inhibit pancreatic cancer tumor growth” (Scientific Reports, 2021).

What was measured:
[1] = system: AMPK; assay: Immunoblots of AMPK T172 and ACC S79 phosphorylation, KP4 cells; type: cell-based, human; settings: 15 µM, 24 h
Procedure: Figure 3 Effects of biguanides on cell proliferation and viability in pancreatic cancer cells. […]. […] | decimal sign comma or point
. […]. Experimental. Cells were rinsed twice with 1X PBS, and lysed in Laemmli 2x (4% SDS, 20% glycerol, 120 mM Tris-HCl pH 6.8). Laemmli extracts were boiled for 5 minutes, then the concentration was assessed with NanoDrop (ThermoFisher) and equalized between samples. Lysates were supplemented with 10% beta-mercaptoethanol and 0.05% bromophenol blue and boiled again for 5 minutes. 25 µg of extracts were loaded on SDS-PAGE then transferred on nitrocellulose membranes for 1h30 at 130V. Membranes were rinsed in 1XPBS1-0.05% Tween-20 then blocked for 1h in 1XPBS, 0.05%-Tween-20 5% Milk. Membranes were rinsed again 3 x 10 min in PBS-Tween, then incubated overnight at 4°C with the following primary antibodies in 1XPBS-0.1%BSA, 0.02%Sodium azide: anti-phospho-AMPK T172 (1:1000, Rabbit, 2531S, Cell Signaling), anti-AMPKalpha (1:1000, Rabbit, 2532, Cell Signaling), anti-phospho-ACC S79 (1:1000, Rabbit Polyclonal, 3661S, Cell Signaling), or incubated for 1h at RT with anti-beta-Actin (1:2000, Mouse, 3700, Cell Signaling). […]

[2] = system: KP4 tumor sections; assay: KI67 and cleaved caspase 3 staining of tumor sections from treated mice; type: in vivo, nude mice; settings: 50 mg/kg, tumor sections after treatment
Description: (B) Body weight of mice seven days after treatment. […] Representative images shown. Scale bar = 100 µm.
To assess the mechanism of the antitumor activity, we stained tumor sections obtained from animals after the treatment protocol for proliferation marker KI67 and apoptosis marker cleaved caspase 3, and quantified the data according to the scoring key in Fig. 5C. […] However, there were no significant differences in staining for cleaved caspase 3 […].

[3] = system: KP4 cells sub-cutaneous xenografts; assay: KP4 sub-cutaneous xenografts in nude mice; settings: 50 mg/kg/day IP, 5 day/week
Description: This dose was chosen from previous work on biguanides to treat mice with pancreatic cancer.
Figure 5 Progression of the volume of KP4 cells sub-cutaneous xenografts performed in nude mice over 37 days. […] (B) Body weight of mice seven days after treatment. […] Representative images shown. Scale bar = 100 µm. […] Results are shown in graphics comparing the percentage of cells stained in each category and the intensity of staining. (E,G) Images of the most representative phenotypes for KI67 staining (E) and cleaved caspase 3 (G).
Experimental. All experiments were performed in accordance to the rules of the in vivo ethical committe of University of Montreal (CDEA #17-103). 6-7 weeks old female nude mice (Hsd:Athymic Nude- Foxn1nu, Envigo) were implanted sub-cutaneously with 750.000 KP4 cells in 100μl of a sterile mix of 20% Matrigel (Corning) in saline solution. Tumor volume was determined by using a caliper, following the formula 4/3*Π*(L*W*T) were L represent the length of the tumor, W, the width, and T, the thickness (all measured in millimeter). […] The compounds were dissolved in the vehicle: 45% Propyleneglycol (Sigma-Aldrich) +5% Tween 80 (Sigma-Aldrich) + ddH2O.

[4] = Solubility in methanol and DMSO; type: physicochemical; settings: even at high concentrations
[5] = system: NAD+/NADH ratio in PSN1 cells; assay: NAD/NADH quantification, PSN1 cells; type: cell-based; settings: 15 µM, 6 h
Procedure: All chemicals were purchased from Aldrich Chemicals in their highest purity and used without further purification. Deuterated dimethylsulfoxide (DMSO-d^6) and deuterated chloroform (CDCl3) were purchased from CDN Isotopes. NMR spectra were recorded on Bruker advance 400 and 100 spectrometers. Coupling constants are given in hertz (Hz) and chemical shifts are given in parts per million (ppm, δ) measured relative to the residual solvent (the multiplicity of the signals are given as s: singlet, d: doublet, t: triplet, and m: multiplet). High-resolution mass spectra (HRMS) were recorded on a TSQ Quantum Ultra (Thermo Scientific) triple quadrupole with accurate mass option instrument (Université de Montréal Mass Spectrometry Facility). […] Transport and depolarization studies as well as absorbance measurements were performed on a Varian Cary Eclipse fluorescence spectrophotometer. The hemolysis assays were performed on a Fluostar Optima plate reader. […] A suitable crystal was selected and analysed on a Bruker Venture Metaljet diffractometer. Crystal violet retention assay was used for cell growth assays and IC50 were determined using Prism (GraphPad). NAD/NADH quantitation colorimetric kit (#K337-100) from Biovision was used according to manufacturer’s instructions. ECAR (extracellular acidification rate) and OCR of KP4 cells (oxygen consumption rate) were measured on a Seahorse XF-24 (Agilent). […]

## N=C(N)NC(=N)NCc1ccc(C#Cc2ccccc2)cc1 [1b, 4-(phenylethynyl)benzylbiguanide]
[1]
  AMPK activation (phosphorylation of AMPK T172 and ACC): induced AMPK activation
[2]
  KI67 staining in tumors: reduced KI67 staining in tumors
[3]
  Effect on body weight: did not affect body weight
  Tolerability in vivo: well tolerated
[3]; from day 11 post engraftment, 37 days
  Effect on tumor volume: significantly reduced tumor volume
[4]
  Solubility in methanol and DMSO: good methanol and DMSO solubility even at high concentrations
[5]
  Decrease of NAD+/NADH ratio: 25%
